In patent US20130149757A1 (OPTINOL, INC., priority 2011, published 2013):

Assays:
[1] = system: strains of C. saccharoperbutylacetonium; conditions: Keis et al, 2001; cited from earlier work
Novel organism = assay: Carbohydrate utilization screen; assay type: cell-based, Clostridium beijerinckii sp. optinoii
Description: A full carbohydrate screen was run to test whether the organism is actually N1-504. […] Rather it falls closer to (but is not identical with) C. beijerinckii.

bacterial cells = conditions: cited from earlier work
[2] = Liquid-liquid extraction with corn oil (Karr extractor); assay type: physicochemical
Procedure: Two runs were conducted, each with a different flow rate.

[3] = system: C. saccharoperbutylacetonium N1-504; conditions: cited from earlier work
[4] = system: C. saccharoperbutylacetonium; conditions: reported (Keis et al.); cited from earlier work

| Molecule | Carbohydrate utilization, strains of C. saccharoperbutylacetonium generally [1] | also measured |
| --- | --- | --- |
| OC[C@H]1O[C@@H](O[C@H]2[C@H](O)[C@@H](O)C(O)O[C@@H]2CO)[C@H](O)[C@@H](O)[C@H]1O (stereo partly drawn) [lactose] | will utilize |  |
| starch | will utilize |  |
| O=C[C@H](O)[C@@H](O)[C@H](O[C@@H]1O[C@H](CO)[C@@H](O)[C@H](O)[C@H]1O)[C@H](O)CO [Cellobiose] | will utilize |  |
| dextrin | will utilize |  |
| O=C[C@H](O)[C@@H](O)[C@H](O)CO [Xylose] | will utilize | Carbohydrate utilization, Novel organism (Novel organism): does not grow |
| n-butanol |  | inhibits growth (bacterial cells; […] butanol): ~100%; inhibits cell growth and fermentation (bacterial cells; butanol at a concentration of 1 percent): about 20% |
| pectin | will utilize |  |
| OC[C@H]1O[C@H](O[C@H]2[C@H](O)[C@@H](O)[C@H](O)O[C@@H]2CO)[C@H](O)[C@@H](O)[C@@H]1O [maltose] | will utilize |  |
| O=C[C@@H](O)[C@H](O)[C@H](O)CO [Arabinose] | will utilize |  |
| CC(C)O [Isopropanol, isopropanol] |  | % extraction, Run 1 ([2]; flow rate feed 26 ml/min): 23.0%; % extraction, Run 2 ([2]; flow rate feed 39 ml/min): 21.5%; extraction in this set up ([2]; summary comment): about 21% |
| O[C@H]1[C@H](O)[C@@H](O)[C@H](O)[C@@H](O)[C@H]1O [inositol] |  | Carbohydrate utilization, C. saccharoperbutylacetonium N1-504 [3]: will not utilize |
| OC[C@H]1O[C@@](CO)(O[C@H]2O[C@H](CO)[C@@H](O)[C@H](O)[C@H]2O)[C@@H](O)[C@@H]1O [sucrose] | will utilize |  |
| CO[C@H]1/C=C/O[C@@]2(C)Oc3c(C)c(O)c4c(O)c(c(/C=N/N5CCN(C)CC5)c(O)c4c3C2=O)NC(=O)/C(C)=C\C=C\[C@H](C)[C@H](O)[C@@H](C)[C@@H](O)[C@@H](C)[C@H](OC(C)=O)[C@@H]1C [rifampin] |  | resistance / inhibition of the organism [4]: resistant |
| OC[C@@H](O)[C@@H](O)[C@H](O)[C@@H](O)CO [Sorbitol] |  | Carbohydrate utilization, C. saccharoperbutylacetonium N1-504 [3]: will not utilize |
| glycogen | will utilize |  |
| OC[C@@H](O)[C@H](O)[C@H](O)[C@@H](O)CO [dulcitol] |  | Carbohydrate utilization, C. saccharoperbutylacetonium N1-504 [3]: will not utilize |
| inulin | will utilize |  |
